Patent US20190125712A1, “COMPOUND FOR ENHANCING ACTIVITY OF ANTIBIOTIC COMPOSITIONS AND OVERCOMING DRUG RESISTANCE” (SHOOLINI UNIVERSITY OF BIOTECHNOLOGY AND MANAGEMENT SCIENCES, priority 2015, published 2019)
In brackets after ≈: the same amount, converted by molar mass. Read-outs that look alike come from different tables or passages of the source. Peptide text beside a SMILES is read from it. * marks the point of attachment. βNA = c1ccc2cc(N*)ccc2c1

Columns and labels:
[1] = system: K. pneumonia Strain 52145 (Drug sensitive or control); test: MIC, ethyl gallate as activity enhancer of antibiotics, drug sensitive K. pneumonia; assay type: cell-based, Klebsiella pneumonia; settings: for MIC: Klebsiella pneumoniae; for MIC Antibiotic + ethyl gallate: combination with ethyl gallate; for Minimum Inhibitory Concentration (MIC): group C: antibiotic + Ethyl gallate 1000 μg/ml; for Fold decrease in antibiotic concentration: on addition of ethyl gallate
Procedure: (§1) This was carried out to assess the potential of the compound to enhance antimicrobial activity and overcome antibacterial resistance.
(§2) The resistant & sensitive control strains of K. pneumonia were procured from Dr. Enrique Llobet, CIBERES, Bunyola, Spain, Dr. Mazzariol of Verona University, Italy and one sensitive control strain were procured from IMTECH, Chandigarh (Table-2). Pseudomonas aeruginosa control cultures (Sensitive & Resistant) were procured from Dr. Thilo Kohler, University of Geneva, and Department of Microbiology and Molecular Medicine Geneve, Switzerland and one sensitive control strain were procured from IMTECH, Chandigarh (Table-3).

[2] = system: P. aeruginosa Strain MTCC-471 (Drug sensitive or control); test: MIC, ethyl gallate as activity enhancer of antibiotics, drug sensitive P. aeruginosa; assay type: cell-based, Pseudomonas aeruginosa; settings: for MIC: Pseudomonas aeruginosa, MTCC471, agent alone (group A ethyl gallate alone, group B antibiotics alone), read-out: Minimum Inhibitory Concentration (MIC); for MIC / Minimum Inhibitory Concentration (MIC): strain MTCC-471; for MIC Antibiotic + ethyl gallate: combination with ethyl gallate; for Minimum Inhibitory Concentration (MIC): group C: antibiotic + Ethyl gallate 1000 μg/ml; for Fold decrease in antibiotic concentration: on addition of ethyl gallate
Procedure: as §1, §2

[3] = system: P. aeruginosa PS11 (Drug resistant); test: MIC, ethyl gallate as activity enhancer of antibiotics, drug resistant P. aeruginosa; assay type: cell-based, Pseudomonas aeruginosa; settings: for MIC: strain PS11; for MIC Antibiotic + ethyl gallate: combination with ethyl gallate; for Fold decrease in antibiotic concentration: on addition of ethyl gallate
Procedure: as §1
K. pneumonia isolate was collected from Gian Sagar medical college, Patiala and characterized in Immuno-parasitoloy Lab, Shoolini University, Solan for multidrug resistance. P. aeruginosa drug resistant strain was collected from Gian Sagar medical college, Patiala and characterized in Immunoparasitoloy Lab, Shoolini University, Solan.

[4] = system: K. pneumonia 1740 knockout (Drug resistant); assay type: cell-based, Klebsiella pneumonia; settings: for MIC Antibiotic + ethyl gallate: combination with ethyl gallate; for MIC: group C: antibiotic + Ethyl gallate 1000 μg/ml, strain 1740 knockout; for Fold decrease in antibiotic concentration: on addition of ethyl gallate
Procedure: as §1, §2

[5] = Solubility of the extracted compound; assay type: physicochemical; settings: compound extracted from T. chebula
Procedure: Then column chromatography was performed on silica gel to extract the compound. 6 fractions for T. chebula plant were obtained by column chromatography. All fractions of T. chebula were subjected for their synergistic activity. The fraction showing synergistic activity was then characterized to know the physical properties of bioactive molecule and the molecular weight of bioactive molecule was determined by LCMS and the structure was elucidated by NMR.

Pseudomonas aeruginosa = settings: against Pseudomonas aeruginosa; Barrett J F (2001); cited from earlier work
[6] = Table 4 (K. pneumonia, both strains), agent alone, read-out: MIC
[7] = agent alone (group A ethyl gallate alone, group B antibiotics alone), strain 52145, read-out: Minimum Inhibitory Concentration (MIC)
[8] = Sensitive Strain, K. pneumonia 52145
[9] = Sensitive Strain, P. aeruginosa MTCC-471
[10] = Pseudomonas aeruginosa, agent alone (group A ethyl gallate alone, group B antibiotics alone), read-out: MIC
[11] = Resistant Strain, P. aeruginosa PS11
[12] = group C: antibiotic + Ethyl gallate 1000 μg/ml
[13] = Resistant Strain, K. pneumonia 1740 knockout

| SMILES | MIC [1, 6] [µg/mL] | MIC [1, 7] [µg/mL] | MIC Antibiotic Alone [1, 8] | MIC Antibiotic + ethyl gallate [1, 8] | Minimum Inhibitory Concentration (MIC) ([1]; strain 52145) [µg/mL] | Fold decrease in antibiotic concentration [1, 8] [fold] | MIC [2] [µg/mL] | MIC Antibiotic Alone [2, 9] [µg/mL] | MIC Antibiotic + ethyl gallate [2, 9] [µg/mL] | Minimum Inhibitory Concentration (MIC) [2] [µg/mL] | Fold decrease in antibiotic concentration [2, 9] [fold] | MIC [3, 10] [µg/mL] | MIC Antibiotic Alone [3, 11] [µg/mL] | MIC Antibiotic + ethyl gallate [3, 11] [µg/mL] | MIC [3, 12] [µg/mL] | Fold decrease in antibiotic concentration [3, 11] [fold] | MIC Antibiotic Alone [4, 13] [µg/mL] | MIC Antibiotic + ethyl gallate [4, 13] [µg/mL] | MIC [4] [µg/mL] | Fold decrease in antibiotic concentration [4, 13] [fold] | also measured |
| --- | --- | --- | --- | --- | --- | --- | --- | --- | --- | --- | --- | --- | --- | --- | --- | --- | --- | --- | --- | --- | --- |
| O=C(N[C@H](CO)[C@H](O)c1ccc([N+](=O)[O-])cc1)C(Cl)Cl [Chloramphenicol] | 2 | 2 | 2.000 | 1.000 | 1.000 | 2 | 1 | 1 | 0.05 | 0.050 | 20 | 2 | 2 | 1 | 1.00 | 2 | 2 (≈ 6.19 µM) | 0.5 | 0.500 | 4 | – |
| O=C(O)c1cn(C2CC2)c2cc(N3CCNCC3)c(F)cc2c1=O [Ciprofloxacin] | – | 0.06 | 0.060 | 0.003 | 0.003 | – | – | – | 0.06 | 0.060 | – | 2 | 2 | 1 | 1.00 | – | – | 0.003 | 0.003 | – | – |
| CCOC(=O)c1cc(O)c(O)c(O)c1 [Ethyl gallate, ethyl gallate] | 2 | 2 | – | – | – | – | 0.06 | – | – | – | – | 2 | – | – | – | – | – | – | – | – | MIC Ethyl gallate ([1]; Sensitive Strain, K. pneumonia 52145, ethyl gallate alone): 2.000; solubility [5]: soluble in methanol and water; MIC Ethyl gallate ([2]; Sensitive Strain, P. aeruginosa MTCC-471, ethyl gallate alone): 0.06 µg/mL; MIC Ethyl gallate ([3]; Resistant Strain, P. aeruginosa PS11, ethyl gallate alone): 2 µg/mL; MIC Ethyl gallate ([4]; Resistant Strain, K. pneumonia 1740 knockout, ethyl gallate alone): 2 µg/mL (≈ 10.1 µM) |
| N=C(N)NCCC[C@H](NC(=O)[C@@H](N)Cc1ccccc1)C(=O)Nc1ccc2ccccc2c1 [PAβN, L-phenylalanyl-L-arginyl-b naphthylamide] (H-Phe-Arg-βNA) | – | – | – | – | – | – | – | – | – | – | – | – | – | – | – | – | – | – | – | – | potentiation of the activity of levofloxacin (Pseudomonas aeruginosa): 8 fold |
| CN(C)[C@@H]1C(O)=C(C(N)=O)C(=O)[C@@]2(O)C(O)=C3C(=O)c4c(O)cccc4[C@@](C)(O)[C@H]3C[C@@H]12 [Tetracycline] | 2 | 2 | 2.000 | 0.500 | 0.500 | 4 | 0.125 | 0.125 | 0.06 | 0.060 | 2 | 2 | 2 | 0.5 | 0.50 | 4 | 2 (≈ 4.5 µM) | 0.5 | 0.500 | 4 | – |
